This note sets out measurements from patent US20100247579A1, “THERAPEUTIC AGENT FOR CANCER” (priority 2007, published 2010).

Values after ≈ are worked out from the molar mass of the structure shown. Counter-ions that a name gives are not always drawn. Like-named read-outs stand apart in the source and are kept apart here.

Assay [1] concerns lymphocytes derived from cancer patient No. PT009 expanded with OKT3 and CH-296. The experiment in a line: Resistance to anticancer agents, WST-1 GI50 on cultured lymphocytes of cancer patient No. PT009. It is filed as cell-based, human. The settings on record: day 10 of culture with OKT3 and CH-296, 20 hours with drug. How it is done: After that, the suspension was stained by the trypan blue staining method to calculate the viable cell count, and then subjected to each experiment.
(§1) On the other hand, the IL-2/5HRPMI was added to the control group in 50 μL/well each.
(§2) These culture plates were incubated at 37° C. for 20 hours in the presence of 5% CO2. After the incubation, WST-1 (Premix WST-1 Cell Proliferation Assay System, manufactured by Takara Bio Inc.) was added in 20 μL/well each to each well of the plate, and incubated in the presence of 5% CO2 at 37° C. for 4 hours. The plates after the incubation were centrifuged at 500×g at room temperature for 5 minutes. After the centrifugation, 100 μL of the supernatant was collected from each well, and the absorbance was measured at an absorption wavelength of 450 nm and a control wavelength of 630 nm [hereinafter referred to as the absorbance (450 nm-630 nm)] using a microplate reader (manufactured by Bio-Rad Laboratories, Inc., Model Number 680XR), and then the specific absorbance (450 nm-630 nm) was calculated according to the following formula.
(§3) Specific absorbance (450 nm-630 nm)=Absorbance of Test Cell Addition Group (450 nm-630 nm)−Absorbance of Control Group (450 nm-630 nm) Formula 2: […]
In general terms: Tetrazolium dyes change colour on reduction, which living cells bring about.

The test system of assay [2] is expanded lymphocytes derived from a human healthy donor. The experiment in a line: Resistance to anticancer agents, WST-1 GI50 on cultured lymphocytes of a human healthy donor. It is filed as cell-based. Particulars: for GI50: Homo sapiens, Lymphocyte. How it is done: as §1, §2, §3
Here, a group where only OKT3 was immobilized to the culture equipment in the expansion of the lymphocytes was also set.
However, in the case of paclitaxel, a human AB type serum was used as a solvent for dilution, and for other drugs, 5HRPMI was used for dilution.

Setting [3] is: healthy donor lymphocytes expanded with OKT3 + CH-296, read-out: GI50 (μg/mL) Initial Stimulation OKT3 + CH-296.
Where [4] appears, read: healthy donor lymphocytes expanded with OKT3 alone, read-out: GI50 (μg/mL) Initial Stimulation OKT3.
The mark [5] stands for this setting: Homo sapiens, Lymphocyte, read-out: GI50.

Regarding `N.N.[Cl][Pt][Cl]` [Cisplatin, cisplatin], the “GI50” value in assay [1] amounted to 3.7 µg/mL.
As for `O=c1[nH]cc(F)c(=O)[nH]1` [Fluorouracil, fluorouracil], the GI50 in assay [2] (setting [3]) stood at 3270 µg/mL; in assay [2] (setting [4]), 2290 µg/mL (≈ 17.6 mM); in assay [1] (setting [5]) it was 639 µg/mL (≈ 4.91 mM).
`CC(=O)O[C@H]1C(=O)[C@@]2(C)[C@H]([C@H](OC(=O)c3ccccc3)[C@]3(O)C[C@H](OC(=O)[C@H](O)[C@@H](NC(=O)c4ccccc4)c4ccccc4)C(C)=C1C3(C)C)[C@]1(OC(C)=O)CO[C@@H]1C[C@@H]2O` [Paclitaxel, paclitaxel]: the GI50 in assay [2] (setting [3]) was 39.7 µg/mL; in assay [2] (setting [4]), 34.1 µg/mL (≈ 0.0399 mM).
Regarding `N.N.O=C([O-])C1(C(=O)[O-])CCC1.[Pt+2]` [Carboplatin, carboplatin], the “GI50 (μg/mL) Initial Stimulation OKT3 + CH-296” value in assay [2] (healthy donor lymphocytes expanded with OKT3 + CH-296) came to 161.31 µg/mL. Also, the “GI50 (μg/mL) Initial Stimulation OKT3” value in assay [2] (healthy donor lymphocytes expanded with OKT3 alone) amounted to 116.16 µg/mL. Further, the “GI50” value in assay [1] came to 215.5 µg/mL.
Turning to `COc1cccc2c1C(=O)c1c(O)c3c(c(O)c1C2=O)C[C@@](O)(C(=O)CO)C[C@@H]3O[C@H]1C[C@H](N)[C@H](O)[C@H](C)O1` [Doxorubicin Hydrochloride, doxorubicin hydrochloride], the GI50 in assay [2] (setting [3]) amounted to 0.41 µg/mL; in assay [2] (setting [4]) it was 0.25 µg/mL; in assay [1] (setting [5]), 0.5 µg/mL.
`CC[C@]1(O)C[C@H]2CN(CCc3c([nH]c4ccccc34)[C@@](C(=O)OC)(c3cc4c(cc3OC)N(C=O)[C@H]3[C@@](O)(C(=O)OC)[C@H](OC(C)=O)[C@]5(CC)C=CCN6CC[C@]43[C@@H]65)C2)C1` [Vincristine Sulfate, vincristine sulfate]: the GI50 came out at 24.3 µg/mL in assay [2] (setting [3]), 4.42 µg/mL in assay [2] (setting [4]) and 0.2 µg/mL in assay [1] (setting [5]).
